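Growth conditions: 96-well plates. Treatment: test compound, 48 hours, 5 concentrations. Analysis: linear interpolation between bracketing concentrations; unreached endpoints set to highest concentration. Here, GI50 denotes the concentration required for 50% inhibition of growth.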 The source made the active and inactive calls. Rule as the data show it: active = GI50 up to about 1.1 µM and inactive = higher.
Legend:
Assay in all cases: DTP human tumour cell line panel, 48 h
[1] = test system: HT-29
[2] = test system: ACHN
[3] = test system: LOX IMVI
[4] = test system: OVCAR-3
[5] = test system: HCT-116
[6] = test system: NCI-H23
[7] = test system: M14
[8] = test system: Malme-3M
[9] = test system: U-251
[10] = test system: SN12C
[11] = test system: OVCAR-8
[12] = test system: SK-OV-3
[13] = test system: CCRF-CEM
[14] = test system: 786-0
[15] = test system: RPMI-8226
[16] = test system: UACC-257

Measured: GI50

COc1cc(OC)cc(C(=O)Cc2c(C(=O)c3ccccc3)c3ccccc3n2C(=O)c2ccccc2)c1
inactive: [1] 22.9 µM | [2] 33 µM | [3] 31.8 µM | [4] 21.3 µM | [5] 23.2 µM | [6] 14.4 µM | [7] 32.2 µM | [8] 38.5 µM | [9] 20.2 µM | [10] 43.8 µM | [11] 16.9 µM | [12] 22.8 µM | [13] 16 µM | [14] 38.9 µM | [15] 9.29 µM

N#Cc1ccc(C2OCC3CC=CCC3CO2)cc1 (centres undefined)
inactive: [1] 44.7 µM | [2] 93.5 µM | [3] 94.6 µM | [4] 91 µM | [16] 42.7 µM | [5] 65.5 µM | [6] 36.3 µM | [7] 52.2 µM | [8] > 100 µM | [9] 76.7 µM | [10] > 100 µM | [11] 83.4 µM | [12] > 100 µM | [13] 44.7 µM | [14] > 100 µM | [15] 42.2 µM

Nc1nc(-c2ccccc2)cc(-c2cc(Cl)ccc2O)n1
inactive: [1] > 100 µM | [2] 25.6 µM | [3] 54 µM | [4] 35.7 µM | [16] > 100 µM | [5] 39.7 µM | [6] 45.7 µM | [7] > 100 µM | [8] > 100 µM | [9] 35.6 µM | [10] > 100 µM | [11] 32.9 µM | [12] 34.2 µM | [13] > 100 µM | [14] 55 µM | [15] > 100 µM

CC1=CCC2(C#N)CCC1C2=O (centres undefined)
inactive: [1] > 100 µM | [2] > 100 µM | [3] > 100 µM | [4] > 100 µM | [16] > 100 µM | [5] > 100 µM | [6] > 100 µM | [7] > 100 µM | [8] > 100 µM | [9] > 100 µM | [10] > 100 µM | [11] > 100 µM | [12] > 100 µM | [13] > 100 µM | [14] > 100 µM | [15] > 100 µM

N#CC(N)(C(=O)C(=O)NCCCNC(=O)C(=O)C(N)(C#N)c1ccc(Cl)cc1)c1ccc(Cl)cc1 (centres undefined)
inactive: [1] > 100 µM | [2] > 100 µM | [3] > 100 µM | [4] > 100 µM | [16] > 100 µM | [5] > 100 µM | [6] > 100 µM | [7] > 100 µM | [8] > 100 µM | [9] > 100 µM | [10] > 100 µM | [11] > 100 µM | [12] > 100 µM | [13] > 100 µM | [14] > 100 µM | [15] > 100 µM

COC(=O)CC(=O)NCC1=CCC(=O)CC1
inactive: [1] > 100 µM | [3] > 100 µM | [4] > 100 µM | [16] > 100 µM | [5] > 100 µM | [6] > 100 µM | [7] > 100 µM | [8] > 100 µM | [9] > 100 µM | [10] > 100 µM | [11] > 100 µM | [12] > 100 µM | [13] > 100 µM | [14] > 100 µM | [15] > 100 µM

CC(C)CN(CC(C)C)C(=O)C1CCCC[C@@H]1C(=O)O (some centres undefined)
inactive: [1] > 100 µM | [2] > 100 µM | [3] > 100 µM | [4] > 100 µM | [16] > 100 µM | [5] > 100 µM | [6] > 100 µM | [7] > 100 µM | [8] > 100 µM | [9] > 100 µM | [10] > 100 µM | [11] > 100 µM | [12] > 100 µM | [13] > 100 µM | [14] > 100 µM | [15] > 100 µM

O=C(COc1ccc(Cl)cc1)N1N=C(c2ccc(Cl)cc2)CC1(O)c1ccccc1 (centres undefined)
inactive: [1] 12.9 µM | [2] 9.04 µM | [3] 12.6 µM | [4] 16.3 µM | [16] 15.8 µM | [5] 12.6 µM | [6] 13.1 µM | [7] 18.1 µM | [8] 20.2 µM | [9] 16.7 µM | [10] 5 µM | [11] 15.2 µM | [12] 19.5 µM | [13] 16.7 µM | [14] 14.5 µM | [15] 7.03 µM

NS(=O)(=O)c1ccc(NC(=O)COC(=O)c2cccc3c(=O)c4ccccc4[nH]c23)cc1
inactive: [1] > 100 µM | [2] 26.5 µM | [3] 13.6 µM | [4] 20.5 µM | [16] 57.3 µM | [5] 17.7 µM | [6] 21.4 µM | [7] 61.4 µM | [8] 17.9 µM | [9] 14.4 µM | [10] 24 µM | [11] 20.7 µM | [12] 18.9 µM | [13] 38.5 µM | [14] 19.2 µM | [15] > 100 µM

C[P+](C)(C)C
inactive: [1] > 100 µM | [2] > 100 µM | [3] > 100 µM | [4] > 100 µM | [16] > 100 µM | [5] > 100 µM | [6] > 100 µM | [7] > 100 µM | [8] > 100 µM | [9] > 100 µM | [10] > 100 µM | [11] > 100 µM | [12] > 100 µM | [13] > 100 µM | [14] > 100 µM | [15] > 100 µM

COc1cc2c3c(c1OC)-c1c(ccc4c1OCO4)CC3(C#N)N(C(=O)c1ccccc1)CC2 (centres undefined)
inactive: [1] > 100 µM | [3] 43 µM | [4] 45.3 µM | [16] 57.7 µM | [5] 42.2 µM | [6] 52.8 µM | [7] > 100 µM | [8] 51.2 µM | [9] 36.4 µM | [10] 51.2 µM | [11] 44.5 µM | [12] 50.5 µM | [13] 51.3 µM | [14] 30.7 µM | [15] 8.91 µM

CC1=C(C(=O)Nc2ccc([N+](=O)[O-])cc2)C(c2ccco2)C(C(=O)Nc2ccc([N+](=O)[O-])cc2)=C(C)N1
inactive: [1] 25.8 µM | [2] 4.4 µM | [3] 19.6 µM | [4] 11.2 µM | [16] 18.5 µM | [6] 13.4 µM | [7] 21.9 µM | [8] 12.4 µM | [9] 21.9 µM | [10] 16.3 µM | [11] 26.9 µM | [12] 9.35 µM | [13] 5.18 µM | [14] 31.8 µM | [15] 2.9 µM

CCCCCCCCCCCCCC(=O)OCC1OC(=O)C(O)C1O (centres undefined)
inactive: [1] > 100 µM | [2] > 100 µM | [3] > 100 µM | [4] > 100 µM | [16] > 100 µM | [5] > 100 µM | [6] > 100 µM | [7] > 100 µM | [8] > 100 µM | [9] > 100 µM | [10] > 100 µM | [11] > 100 µM | [12] > 100 µM | [13] > 100 µM | [14] > 100 µM | [15] > 100 µM

Reference: ChEMBL document CHEMBL1201862, “PubChem BioAssay data set” (2004)
